Laboratory results: patent publication US10183914B2 (BAYER CROPSCIENCE AKTIENGESELLSCHAFT, priority 2014, dated 2019)
Like-named read-outs stand apart in the source and are kept apart here.

Assays:
Oryza sativa [1] = test: Pre-emergence herbicidal effect and crop plant compatibility; assay type: in vivo; conditions: 3 weeks
Method in brief: (§1)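 Weed and crop seeds are sown in wood-fiber pots, covered with soil, then treated on the soil surface with aqueous suspensions or emulsions of WP or EC formulations. Application volume is 600 to 800 L/ha with 0.2% wetting agent. After 3 weeks in the greenhouse, damage is scored visually against untreated plants.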

[2] = system: Triticum aestivum (spring); test: as above; assay type: in vivo; conditions: 3 weeks
Method in brief: as §1

Zea mays [3] = test: as above; assay type: in vivo; conditions: 3 weeks
Method in brief: as §1

Alopecurus myosuroides = test: Pre-emergence herbicidal effect; assay type: in vivo; conditions: 3 weeks
Method in brief: as §1

Amaranthus retroflexus = test: Pre-emergence herbicidal effect; assay type: in vivo; conditions: 3 weeks
Method in brief: as §1

Echinochloa crus-galli [4] = test: Pre-emergence herbicidal effect; assay type: in vivo; conditions: 3 weeks
Method in brief: as §1

Lolium multiflorum [5] = test: Pre-emergence herbicidal effect; assay type: in vivo; conditions: 3 weeks
Method in brief: as §1

Matricaria inodora = test: Pre-emergence herbicidal effect; assay type: in vivo; conditions: 3 weeks
Method in brief: as §1

Stellaria media = test: Pre-emergence herbicidal effect; assay type: in vivo; conditions: 3 weeks
Method in brief: as §1

Veronica persica = test: Pre-emergence herbicidal effect; assay type: in vivo; conditions: 3 weeks
Method in brief: as §1

Viola tricolor = test: Pre-emergence herbicidal effect; assay type: in vivo; conditions: 3 weeks
Method in brief: as §1

Oryza sativa [6] = test: Post-emergence herbicidal effect and crop plant compatibility; assay type: in vivo; conditions: visual scoring after about 3 weeks
Protocol: (§2) Seeds of monocotyledonous and dicotyledonous weed and crop plants are laid out in sandy loam in wood-fiber pots, covered with soil and cultivated in a greenhouse under good growth conditions. 2 to 3 weeks after sowing, the test plants are treated at the one-leaf stage. The compounds of the invention, formulated in the form of wettable powders (WP) or as emulsion concentrates (EC), are then sprayed onto the green parts of the plants as aqueous suspension or emulsion at a water application rate equating to 600 to 800 L/ha with addition of 0.2% wetting agent. After the trial plants have been left to stand in a greenhouse under optimal growth conditions for about 3 weeks, the efficacy of the formulations is scored visually in comparison to untreated controls (herbicidal action in percent (%): 100% efficacy=the plants have died, 0% efficacy=like control plants).

[7] = system: Triticum aestivum (spring); test: as above; assay type: in vivo; conditions: visual scoring after about 3 weeks
Protocol: as §2

Zea mays [8] = test: as above; assay type: in vivo; conditions: visual scoring after about 3 weeks
Protocol: as §2

Lolium multiflorum [9] = test: Post-emergence herbicidal effect; assay type: in vivo; conditions: 320 g/ha, visual scoring after about 3 weeks
Protocol: as §2

[10] = logp (HCOOH), physicochemical characterization
Ipomoea purpurea [11] = test: Pre-emergence herbicidal effect; assay type: in vivo; conditions: 320 g/ha, 3 weeks
Method in brief: as §1

Polygonum convolvulus = test: Pre-emergence herbicidal effect; assay type: in vivo; conditions: 320 g/ha, 3 weeks
Method in brief: as §1

Setaria viridis [12] = test: Pre-emergence herbicidal effect; assay type: in vivo; conditions: 3 weeks
Method in brief: as §1

Echinochloa crus-galli [13] = test: Post-emergence herbicidal effect; assay type: in vivo; conditions: 320 g/ha, visual scoring after about 3 weeks
Protocol: as §2

Ipomoea purpurea [14] = test: Post-emergence herbicidal effect; assay type: in vivo; conditions: 320 g/ha (dose by row order of upper half), scoring after about 3 weeks
Protocol: as §2

Setaria viridis [15] = test: Post-emergence herbicidal effect; assay type: in vivo; conditions: 320 g/ha (dose by row order of upper half), scoring after about 3 weeks
Protocol: as §2

Row | SMILES | ORYSA herbicidal activity in percent (Oryza sativa [1]; 80 g/ha) [%] | ORYSA herbicidal activity in percent (Oryza sativa [1]; 320 g/ha) [%] | TRZAS herbicidal activity in percent ([2]; 80 g/ha) [%] | TRZAS herbicidal activity in percent ([2]; 320 g/ha) [%] | ZEAMX herbicidal activity in percent (Zea mays [3]; 80 g/ha) [%] | ZEAMX herbicidal activity in percent (Zea mays [3]; 320 g/ha) [%] | ALOMY herbicidal activity in percent (Alopecurus myosuroides; 320 g/ha) [%] | AMARE herbicidal activity in percent (Amaranthus retroflexus; 80 g/ha) [%] | AMARE herbicidal activity in percent (Amaranthus retroflexus; 320 g/ha) [%] | ECHCG herbicidal activity in percent (Echinochloa crus-galli [4]; 320 g/ha) [%] | LOLMU herbicidal activity in percent (Lolium multiflorum [5]; 320 g/ha) [%] | MATIN herbicidal activity in percent (Matricaria inodora; 80 g/ha) [%] | MATIN herbicidal activity in percent (Matricaria inodora; 320 g/ha) [%] | STEME herbicidal activity in percent (Stellaria media; 80 g/ha) [%] | STEME herbicidal activity in percent (Stellaria media; 320 g/ha) [%] | VERPE herbicidal activity in percent (Veronica persica; 80 g/ha) [%] | VERPE herbicidal activity in percent (Veronica persica; 320 g/ha) [%] | VIOTR herbicidal activity in percent (Viola tricolor; 320 g/ha) [%] | post-emergence efficacy ORYSA (Oryza sativa [6]; 80 g/ha) [%] | post-emergence efficacy ORYSA (Oryza sativa [6]; 320 g/ha) [%] | other results
1 | CC(C)C1CC(=O)c2cnc(N[C@@H]3CCc4ccccc43)nc2C1 (stereo partly drawn) [2.103] | 0 | 0 | 0 | 0 | 0 | 0 | 80 | 100 | 100 | 100 | 90 | 100 | 100 | 100 | 100 | 100 | 100 | 100 | 0 | 0 | ECHCG herbicidal activity in percent (Echinochloa crus-galli [4]; 80 g/ha): 90%; post-emergence efficacy TRZAS ([7]; 80 g/ha): 10%; post-emergence efficacy TRZAS ([7]; 320 g/ha): 20%; post-emergence efficacy ZEAMX (Zea mays [8]; 80 g/ha): 0%; post-emergence efficacy ZEAMX (Zea mays [8]; 320 g/ha): 0%; post-emergence efficacy LOLMU (Lolium multiflorum [9]): 80%
2 | CC(=O)c1cnc(NC2CCOc3c(C)cccc32)nc1 (racemic) [1.7] |  |  | 0 | 0 | 0 | 20 | 100 |  | 100 | 90 | 100 | 90 | 100 | 80 | 100 | 100 | 100 | 100 |  |  | logp (HCOOH) ([10]; HCOOH): solid; m.p.: 167-168° C.; logp (HCOOH): 2.54; 1H-NMR (CDCl3, 400 MHZ, δ in; ALOMY herbicidal activity in percent (Alopecurus myosuroides; 80 g/ha): 80%; PHBPU herbicidal activity in percent (Ipomoea purpurea [11]): 100%; POLCO herbicidal activity in percent (Polygonum convolvulus): 90%; SETVI herbicidal activity in percent (Setaria viridis [12]; 320 g/ha): 90%
3 | Cc1ccc2c(c1)[C@H](Nc1ncc3c(n1)CCCC3=O)[C@@H](C)C2 [2.118] | 10 | 10 | 0 |  | 0 | 0 | 90 | 100 | 100 | 100 | 100 | 90 | 100 | 100 | 100 | 100 | 100 | 100 | 0 | 0 | logp (HCOOH) [10]: oily; logp (HCOOH): 4.51; 1H-NMR (CDCl3, 400 MHZ, δ in ppm): 1.25 (d, 3H, 3H; LOLMU herbicidal activity in percent (Lolium multiflorum [5]; 80 g/ha): 80%; POLCO herbicidal activity in percent (Polygonum convolvulus): 100%; SETVI herbicidal activity in percent (Setaria viridis [12]; 80 g/ha): 100%; SETVI herbicidal activity in percent (Setaria viridis [12]; 320 g/ha): 100%; VIOTR herbicidal activity in percent (Viola tricolor; 80 g/ha): 100%; post-emergence efficacy TRZAS ([7]; 80 g/ha): 0%; post-emergence efficacy ZEAMX (Zea mays [8]; 80 g/ha): 0%; post-emergence efficacy ZEAMX (Zea mays [8]; 320 g/ha): 10%; post-emergence efficacy ECHCG (Echinochloa crus-galli [13]): 100%; post-emergence efficacy PHBPU (Ipomoea purpurea [14]): 100%; post-emergence efficacy LOLMU (Lolium multiflorum [9]): 80%; post-emergence efficacy SETVI (Setaria viridis [15]): 80%
